Source: patent US11186577B2, “Vasopressin receptor antagonists and products and methods related thereto” (BlackThorn Therapeutics, Inc., priority 2017, dated 2021)
Read-outs that look alike come from different tables or passages of the source. Blank lines part the entries; values can stand above or below the compound they belong to.

Experiments:
V1a receptors = V1a receptors (Rattus norvegicus (Rat), UniProt P30560); experiment: Arginine-Vasopressin (AVP) induced phospho-Erk measurement in rat choroid plexus (RCP) cells; type: cell-based
Chain of V1a receptors (P30560 whole entry): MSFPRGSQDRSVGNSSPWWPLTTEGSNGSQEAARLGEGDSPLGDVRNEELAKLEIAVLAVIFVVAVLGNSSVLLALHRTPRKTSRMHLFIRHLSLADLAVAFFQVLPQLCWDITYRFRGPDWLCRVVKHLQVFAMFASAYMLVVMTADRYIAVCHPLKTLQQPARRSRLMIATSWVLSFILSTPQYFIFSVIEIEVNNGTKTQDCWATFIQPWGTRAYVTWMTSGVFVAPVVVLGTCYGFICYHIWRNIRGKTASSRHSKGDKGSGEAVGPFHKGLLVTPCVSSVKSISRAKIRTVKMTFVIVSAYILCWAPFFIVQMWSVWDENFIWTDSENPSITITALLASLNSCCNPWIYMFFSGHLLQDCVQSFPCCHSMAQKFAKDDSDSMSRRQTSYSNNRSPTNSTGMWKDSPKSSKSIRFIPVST
From the text: When V1a receptors are coupled to phospholipase C (PLC), they increase intracellular Ca2+ concentrations and protein kinase C (PKC) activity, and transactivate the mitogen-activated protein kinases/extracellular signal-regulated kinase (MAPK/Erk) and PI3 kinase/Akt pathways upon activation (Chen et al., J Neuroendocrinol. 2010). Rat choroid plexus (RCP) cell lines express functional V1a receptors measured by increased calcium concentrations in response to V1a receptor agonists (Battle et al., Biochem Biophys Res Comm 2000).
RCP P9(18) cells were seeded 30K/well, in 100 μl growth medium containing 10% FBS in polystyrene 96-well plates and incubated at 37° C., 5% CO2 and incubated overnight. The following day, the growth medium was replaced with 50 μl pre-warmed HBSS containing 20 mM HEPES and the cells were incubated at 37° C., 5% CO2 for 1.5 hrs. 1 mM AVP (Sigma V9879) was freshly prepared in distilled water in a glass vial, and diluted to 3× concentrations in HBSS containing 20 mM HEPES and 0.1% BSA in glass vials and kept on ice. Cells were treated with 25 μl 3× vehicle, 3× eBioscience Cell Stimulation Cocktail (Thermo Fisher Scientific 00-4970-93) or 3×AVP and incubated at 37° C., 5% CO2 for 5, 10 or 20 min. Final concentrations of AVP: 10, 100 or 1000 nM. Final concentrations of components in Cell Stimulation Cocktail: 81 nM PMA, 1.34 μM ionomycin, 0.2% ethanol. Cells were lysed with 25 μl 4×CST lysis buffer containing protease and phosphatase inhibitors, PMSF and SDS and then stored at −80° C., for 48 h. The lysates were thawed, centrifuged at 2000 g for 30 min at 4° C. and 40 μl supernatants assayed for pERK1/2 (Thr202/Tyr204; Thr185/Tyr187) and total ERK1/2 using MSD kit K15107D. The MSD ECL data for the lysates were corrected for no cell blanks, then phospho-protein levels expressed as a ratio to the total ERK1/2 level. The ratios were expressed as fold-change from the vehicle-treated control at each timepoint.

in vitro = details: dog, MDCK
MDR1 (P-gp) = experiment: in vitro; details: dog, MDCK-MDR1
CD-1 mice = experiment: Arginine-Vasopressin (AVP) induced behavior in mouse (i.c.v. AVP, scratching, digging, grooming); type: in vivo; details: 100 mg/kg, po
Description: Administration of Arginine-Vasopressin (AVP) intracerebroventricularly (i.c.v.) elicits characteristic scratching, digging and grooming behavior in mice that can be measured readily and is sensitive to blockade with vasopressin antagonists (Meisenberg, 1988; Bleickart et al., 2009).
Male CD-1 mice (Charles River Germany) weighing 22-25 g upon the study in-life are used for this study. Animals are housed in groups of 4-5 per cage in standard temperature (22±1° C.) and light-controlled environment (lights on from 7 am to […]), with ad libitum access to food and water. Prior to commencing any procedures to the mice, they are allowed to habituate in the vivarium for a minimum of 7 days.
Anesthesia is induced in a plexiglass chamber for 2-3 min with 5% isoflurane, and maintained through a snout mask with 1-2% isoflurane thereafter. A homeothermic blanket system with a rectal probe is used to monitor and maintain the animal's body temperature at 37.0° C.±1.5° C. during the operation. […] The actual coordinates are calculated by the distance from the point in midline between the eyes and no skin incision is made. […]
Mice are observed and video-recorded for 15 minutes following AVP/saline administration and behaviors are measured (in seconds) and a cumulative time is calculated. […]

MDR1-MDCK cells = experiment: MDR1-MDCK effective efflux assay (Transwell, 10 μM, 1 hour), MDR1-MDCK cells; type: in vitro ADME; details: for MDR1 EER / MDR1 ER: MDCK-MDR1
How it was run: (§1)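 Wild-type and MDR1-MDCK monolayers cultured 3 days were dosed with compound at 10 μM (0.1% DMSO) in HBSS/25 mM HEPES pH 7.4, in both A>B and B>A directions, for 1 h at 37 °C. Samples were quantified by LC-MS/MS to give Papp and efflux ratio. Effective efflux ratio = ER(MDR1-MDCK)/ER(wild-type); Lucifer Yellow checked monolayer integrity.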

[1] = tested on: wild-type (WT) MDCK cells; experiment: MDR1-MDCK effective efflux assay (Transwell, 10 μM, 1 hour), wild-type MDCK cells; type: in vitro ADME; details: for WT ER: MDCK
How it was run: as §1

MDR1 (P-glycoprotein) = experiment: MDR1-MDCK effective efflux assay (Transwell, 10 μM, 1 hour), MDR1-MDCK cells; type: in vitro ADME; details: dog, MDCK-MDR1, pH 7.4, Papp AB MDR1
How it was run: as §1

[2] = MDR1-MDCK effective efflux assay (Transwell, 10 μM, 1 hour), wild-type MDCK cells; type: in vitro ADME; details: dog, MDCK, pH 7.4, Papp AB WT
How it was run: as §1

[3] = second study, read-out: IC50, AVP induced pERK1/2 to total ERK1/2
[4] = study 1, read-out: IC50, AVP induced pERK1/2 to total ERK1/2

IC50 (V1a receptors; [3]): 56.7 nM
IC50 (V1a receptors; [4]): 85.6 nM
Papp A→B at 2 h (in vitro): 10 to 20 ×10⁻⁶ cm/s
Papp A→B at 2 h (MDR1 (P-gp)): > 20 ×10⁻⁶ cm/s
Structure (SMILES): CN1Cc2cc(Cl)ccc2-n2c(nnc2[C@H]2CC[C@H](Oc3ccccn3)CC2)C1 [balovaptan, reference compound]
antagonist activity to AVP-induced scratching behaviors (CD-1 mice): effective

Structure (SMILES): COC(=O)N1Cc2cc(Cl)ccc2-n2c(C3CC4(C3)CN(c3ccc(F)cn3)C4)nnc2C1C (single isomer, unassigned) [142A]
Papp AB MDR1 (MDR1-MDCK cells; MDR1-MDCK cells, apical to basolateral (A>B), 10 μM, 1 hour): ++++ ((++++) denotes >20 (10^-6 cm/sec))
IC50 (V1a receptors; [3]): 20 nM
IC50 (V1a receptors; [4]): 16 nM
Papp AB WT ([1]; wild-type MDCK cells, apical to basolateral (A>B), 10 μM, 1 hour): ++++ ((++++) denotes >20 (10^-6 cm/sec))

Structure (SMILES): COC(=O)N1Cc2cc(Cl)ccc2-n2c(C3CC4(C3)CN(c3ccc(F)cn3)C4)nnc2C1C (stereo not shown) [compound 142, methyl 8-chloro-1-(2-(5-fluoropyridin-2-yl)-2-azaspiro[3.3]heptan-6-yl)-4-methyl-4H-benzo[f][1,2,4]triazolo[4,3-a][1,4]diazepine-5(6H)-carboxylate]
MDR1 EER (MDR1-MDCK cells): +
MDR1 ER (MDR1-MDCK cells): ++
Papp A→B at 1 h, 10 μM (MDR1 (P-glycoprotein)): > 20 ×10⁻⁶ cm/s
Papp A→B at 1 h, 10 μM [2]: > 20 ×10⁻⁶ cm/s
WT ER [1]: ++++

Structure (SMILES): CN1Cc2cc(Cl)ccc2-n2c(nnc2C2CC3(C2)CN(c2cccc(F)n2)C3)C1 [compound 8]
MDR1 EER (MDR1-MDCK cells): +++
MDR1 ER (MDR1-MDCK cells): +++
Papp A→B at 1 h, 10 μM (MDR1 (P-glycoprotein)): > 20 ×10⁻⁶ cm/s
Papp A→B at 1 h, 10 μM [2]: > 20 ×10⁻⁶ cm/s
WT ER [1]: ++++

Structure (SMILES): CCC(=O)N1Cc2cc(Cl)ccc2-n2c(nnc2C2CC3(C2)CN(c2ccccn2)C3)C1 [compound 67]
MDR1 EER (MDR1-MDCK cells): +
MDR1 ER (MDR1-MDCK cells): +
Papp A→B at 1 h, 10 μM (MDR1 (P-glycoprotein)): < 7 ×10⁻⁶ cm/s
Papp A→B at 1 h, 10 μM [2]: > 20 ×10⁻⁶ cm/s
WT ER [1]: +++

Structure (SMILES): CN1Cc2cc(Cl)ccc2-n2c(nnc2C2CC3(C2)CN(c2ccc(F)cn2)C3)C1 [compound 1, 8-chloro-1-(2-(5-fluoropyridin-2-yl)-2-azaspiro[3.3]heptan-6-yl)-5-methyl-5,6-dihydro-4H-benzo[f][1,2,4]triazolo[4,3-a][1,4]diazepine]
MDR1 EER (MDR1-MDCK cells): +
MDR1 ER (MDR1-MDCK cells): +
Papp A→B at 1 h, 10 μM (MDR1 (P-glycoprotein)): 7 to 10 ×10⁻⁶ cm/s
Papp A→B at 1 h, 10 μM [2]: > 20 ×10⁻⁶ cm/s
WT ER [1]: ++

Structure (SMILES): CC(C)OC(=O)N1Cc2cc(Cl)ccc2-n2c(C3CC4(C3)CN(c3ncccn3)C4)nnc2C1C (stereo not shown) [compound 167]
MDR1 EER (MDR1-MDCK cells): +++
MDR1 ER (MDR1-MDCK cells): +++
Papp A→B at 1 h, 10 μM (MDR1 (P-glycoprotein)): > 20 ×10⁻⁶ cm/s
Papp A→B at 1 h, 10 μM [2]: > 20 ×10⁻⁶ cm/s
WT ER [1]: +++

Structure (SMILES): COC(=O)N1Cc2cc(Cl)ccc2-n2c(C3CC4(C3)CN(c3ncccn3)C4)nnc2C1C (stereo not shown) [compound 166]
MDR1 EER (MDR1-MDCK cells): +
MDR1 ER (MDR1-MDCK cells): +
Papp A→B at 1 h, 10 μM (MDR1 (P-glycoprotein)): < 7 ×10⁻⁶ cm/s
Papp A→B at 1 h, 10 μM [2]: > 20 ×10⁻⁶ cm/s
WT ER [1]: +++

Structure (SMILES): CC1c2nnc(C3CC4(C3)CN(c3cnccn3)C4)n2-c2ccc(Cl)cc2CN1C(=O)C1(F)CC1 (stereo not shown) [compound 177]
MDR1 EER (MDR1-MDCK cells): +
MDR1 ER (MDR1-MDCK cells): +
Papp A→B at 1 h, 10 μM (MDR1 (P-glycoprotein)): < 7 ×10⁻⁶ cm/s
Papp A→B at 1 h, 10 μM [2]: > 20 ×10⁻⁶ cm/s
WT ER [1]: +++

Structure (SMILES): CCOC(=O)N1Cc2cc(Cl)ccc2-n2c(C3CC4(C3)CN(c3ncc(F)cn3)C4)nnc2C1C (stereo not shown) [compound 172]
MDR1 EER (MDR1-MDCK cells): ++
MDR1 ER (MDR1-MDCK cells): ++
Papp A→B at 1 h, 10 μM (MDR1 (P-glycoprotein)): > 20 ×10⁻⁶ cm/s
Papp A→B at 1 h, 10 μM [2]: > 20 ×10⁻⁶ cm/s
WT ER [1]: ++++
